Assay results from patent publication US9375477B2 (GALDERMA RESEARCH & DEVELOPMENT, priority 2012, dated 2016).

Test: In vitro cutaneous penetration on human skin (Franz cell)
Assay type: in vitro ADME
Settings: 16 hours after application; the 3 formulae evaluated (Examples 2 and 9, reference gel)
Method: The cutaneous penetration studies performed on the formulations of the invention containing an active principle of the retinoid class were performed in vitro on whole human abdominal skin after excision, this skin being mounted on a Franz cell.
After topical application of a given amount of the formulation to the surface of the skin, the penetration of the active principle is measured 16 hours after application.
The amount of active principle of the retinoid class is measured in the various skin compartments: stratum corneum, epidermis, dermis and also in the receiving liquid.
The bioanalysis was carried out by positive electrospray ionization tandem mass spectrometry, and using a Xevo machine (Waters).
The quantification limit for compound A is 0.5 ng/mL. The LC/MS/MS conditions developed made it possible to detect up to 0.1% of the dose applied in each of the compartments (dose not absorbed, stratum, epidermis, dermis and receiving liquid). The appropriateness, accuracy and repeatability of the method were checked in each of the matrices, and made it possible to validate the bioanalysis method.
In this type of “single point” study, the parameters retained are: • a. the distribution profile in the various compartments (qualitative data) • b. the penetration into the epidermis+dermis compartment (numerical data)

Compound A in the receiving liquid: not detected
Compound: CC(C)(C)c1cc(-c2cc(-c3ccc(C(=O)O)cc3)ccc2OCCO)ccc1N1CCCC1 [Compound A, 3″-tert-butyl-4′-(2-hydroxyethoxy)-4″-pyrrolidin-1-yl-[1,1′; 3′,1″]-terphenyl-4-carboxylic acid]
